Here are results for two compounds from patent US20110009379A1, “INDOLINONE COMPOUND” (ASTELLAS PHARMA INC., priority 2008, published 2011).

pEC50, pIC50: −log10 of the molar value.

One data set deals with T1, human TRPA1 (Homo sapiens, UniProt O75762, K186N/R3C/R58T).
T1 construct: expressed in transfected cells; pcDNA3.1(+) vector)
In words: Measurement of TRPA1 activation activity (intracellular calcium, FLIPR, HEK293 cells stably expressing human TRPA1). The data set is classed as cell-based. Conditions: change of intracellular calcium concentration. On the procedure:
10 ng of Human brain mRNA (Clontech Co.) was treated with DNase, and then was reverse transcribed using kit for reverse transcription-polymerase chain reaction (RT-PCR) (SUPERSCRIPT First-Strand Synthesis System for RT-PCR; Invitrogen Co.) to synthesize the first strand cDNA. PCR using a hot start method was performed using the first strand cDNA as a template and Taq DNA polymerase (LA Taq DNA polymerase; TAKARA SHUZO). The PCR was performed using oligonucleotides consisting of the nucleotide sequences, represented by sequence number 2 as a sense primer and sequence number 3 as an antisense primer, in which firstly, heat denaturation was performed at 98° C. (1 minute), and then a cycle of 98° C. (15 seconds)/56° C. (30 seconds)/72° C. (5 minutes) was repeated 35 times. As a result, a DNA fragment of about 3.3 kbp was amplified.
The DNA fragment was cloned to pCR-TOPO vector using a cloning kit (TOPO XL PCR Cloning Kit; Invitrogen). The obtained plasmid DNA was digested with restriction enzymes KpnI and HindIII, and then was cloned using plasmid pcDNA 3.1(+)(Invitrogen). In this connection, the plasmid pcDNA 3.1(+) has a promoter sequence derived from cytemegalovirus, and can be used in order to express a protein in animal cells.
The nucleotide sequences of the obtained clones were analyzed using DNA sequencer (ABI3700 DNA Sequencer; Applied Biosystems) by dideoxyterminator method, and the nucleotide sequence represented by sequence number 1 was obtained. Furthermore, when these sequences were translated to amino acid sequences, the amino acid sequence represented by sequence number 1 was obtained.
After constructing the expression vector of the human TRPA1 gene, selection by G418 was performed from the HEK293 cells which temporarily expressed TRPA1 by transfection operation to obtain cells stably expressing TRPA1. The above operation was performed according to known methods (experimental medicine supplementary volume, “Cultivation Cell Experimental Methods for Molecular Biology Study” published by Toshio Kuroki, Namho Hue and Kazuhiro Chida, 1995, Yodosha).
In order to measure the change of the intracellular calcium concentration in the cells stably expressing the human TRPA1, the change of the intracellular calcium concentration when a compound to be tested was added was measured using FLIPR (Molecular Device).
In order to measure the change of the intracellular calcium concentration with FLIPR, the following pretreatment was performed. First of all, assay buffer was prepared which was for adding fluorescent pigment Fluo4-AM (DOJIN) to the cells or washing the cells just before performing FLIPR assay. To a solution (hereinafter, HBSS/HEPES solution) where 20 mL of 1M HEPES (pH 7.4; Invitrogen) was added to 1000 mL of a physiological saline buffer (Hank's Balanced Salt Solution; HBSS) (Invitrogen), was added 10 mL of a solution where 710 mg of probenecid (Sigma) was dissolved into 5 mL of 1M aqueous NaOH solution and 5 mL of HBSS/HEPES solution was further added and mixed, and the assay buffer was thus prepared. Then, 50 μg of Fluo4-AM was dissolved into 22 μL of DMSO (DOJIN), the same amount of 20% pluronic acid (Molecular Probes) was added thereto and mixed, and the mixture was added to the 10.6 mL of the assay buffer where 105 μL of fetal bovine serum was added, to prepare a fluorescent pigment solution. The medium of the cells stably expressing TRPA1 was removed, 100 μL per well of the fluorescent pigment solution was dispensed immediately, followed by cultivation in a CO2 cultivator for 1 hour, and the fluorescent pigment was soaked in the cells. The cells after cultivation were washed using the assay buffer, followed by being set in FLIPR. Furthermore, a test sample, which was added to the cells stably expressing TRPA1, was prepared by using the assay buffer, and at the same time, was set in FLIPR. […]
In general terms: Calcium flux is commonly read through the fluorescence of an indicator in the cells.

The target of the next data set is Cytochrome P450(2D6) (Homo sapiens, UniProt P10635). In words: Cytochrome P450(2D6) enzyme inhibition test. Type of data set: in vitro ADME. The note with it: CYP2D6, fluorescent substrate 1.5 μmol/L, 37° C., 20 minutes. On the procedure:
The experiment was performed in accordance with the method of Crespi et al. (Analytical Biochemistry, 248, 188-190, 1997).
As a substrate, 3-[2-(N,N-diethyl-N-methylamino)ethyl]-7-methoxy-4-methyl coumarine (1.5 μmol/L) a compound to be tested (3.1×10^−7 to 2×10^−5 M) and an enzyme (2.5×10^−8 M) were incubated at 37° C. for 20 minutes in total of […] of 100 mM phosphorous buffer (pH=7.4) including 8.2 mM NADP+, 0.41 mM glucose-6-phosphate, 0.41 mM MgCl2 and 0.4 Units/mL glucose-6-phosphate dehydrogenase, using 96 well plates. Then, 0.5 M aqueous 2-amino-2-hydroxymethyl-1,3-propandiol solution containing 80% acetonitrile was added to stop the reaction, fluorescence intensity (excitation wavelength; 390 nm, fluorescent wavelength; 460 nm) was measured with a fluorescent plate reader. An inhibition ratio was calculated with the following formula, and the test compound concentration when the inhibition ratio is 50% (IC50) was obtained.
C1: fluorescence intensity in the presence of the test compound and enzyme at know concentrations, and the substrate
C0: fluorescence intensity in the presence of the enzyme and substrate, without the test compound
B1: fluorescence intensity of blank well

A further data set relates to RIN14B cells. In words: Measurement of 5-HT secretion from RIN14B. Type of data set: cell-based. Conditions: 20 minutes at 37° C., relative to 300 μM allyl isothiocyanate = 100%, HBSS only = 0%. On the procedure:
In order to investigate whether TRPA1 is related to 5-HT release, 5-HT secretion promotion from RIN14B by a compound to be tested was measured.
The RIN14B cells cultivated in a petri dish were scraped using Phosphate buffered saline (PBS) containing 1 mM EDTA, distributed into 24 well plates, and cultivated for 2 days. As a medium, a medium in which 10% fetal bovine serum (ICN), 100 U/mL penicillin, and 100 μg/mL streptomycin was added to RPMI1640 (Invitrogen), was used. The cells were washed once with HBSS (Invitrogen) and added with 0.1% BSA and 10 μM fluoxetine (TOCRIS Co.), followed by dilution with the above HBSS, the prepared compound to be tested was added to RIN14B cells, followed by cultivation at 37° C., under 5% CO2 condition for 20 minutes. After cultivation, supernatant of cells was recovered, followed by freeze preservation. The content of 5-HT in the supernatant was measured by a commercial serotonin immunoassay kit (Beckman). 5-HT release promotion activation value (%) was evaluated as a relative value when the 5-HT release promotion value by 300 μM of allyl isothiocyanate was defined as 100%, and the 5-HT release promotion value by HBSS for dilution only was defined as 0%.

Data set [1] concerns delay of discharging time induced by loperamide in mice. In words: Loperamide induced constipation model (glass bead discharging time). Type of data set: in vivo. Conditions: Mus musculus; mice (Slc:ddY, male), 0.3 mg/kg loperamide subcutaneously, compound orally; read-out: ED50 (amount which suppresses 50% of the delay of discharging time induced by loperamide). On the procedure: It has been known that loperamide as a μ opioid receptor agonist causes convulsive contraction in intestinal tracts. Thus, a delay in the intestinal transport ability due to loperamide is thought as a constipation IBS model.
Mice (Slc:ddY, five-week old, male) fasted from the previous evening of the experiment. On the day of the experiment, the mice were acclimatized to cages for measurement for 1 hour or more, and 0.3 mg/kg of loperamide was administered subcutaneously. After 30 minutes, a compound to be tested was administered orally, ether anesthesia was applied to the mice immediately thereafter, glass beads having diameter of 3 mm were inserted to 2 cm from anus. The mice were returned to the cages for measurement, and the time from waking to discharging of the glass beads was measured. Furthermore, the compound to be tested was dissolved into 10% DMSO, 10% cremophor, and 80% distillated water.
As a result, it has been recognized that there was a delay in the beads discharging time of the loperamide administration group (vehicle group) in comparison with the loperamide non-administration group (control group).
ED50 values (amount of the compound to be tested which suppresses 50% of the delay of discharging time induced by loperamide) of some of the compounds of the formula (I) are shown in Table 3. In this connection, comparative compound 1 is the same compound as comparative compound 1 in Test Example 4.

T1 sequence (O75762 whole entry R3C/R58T/K186N): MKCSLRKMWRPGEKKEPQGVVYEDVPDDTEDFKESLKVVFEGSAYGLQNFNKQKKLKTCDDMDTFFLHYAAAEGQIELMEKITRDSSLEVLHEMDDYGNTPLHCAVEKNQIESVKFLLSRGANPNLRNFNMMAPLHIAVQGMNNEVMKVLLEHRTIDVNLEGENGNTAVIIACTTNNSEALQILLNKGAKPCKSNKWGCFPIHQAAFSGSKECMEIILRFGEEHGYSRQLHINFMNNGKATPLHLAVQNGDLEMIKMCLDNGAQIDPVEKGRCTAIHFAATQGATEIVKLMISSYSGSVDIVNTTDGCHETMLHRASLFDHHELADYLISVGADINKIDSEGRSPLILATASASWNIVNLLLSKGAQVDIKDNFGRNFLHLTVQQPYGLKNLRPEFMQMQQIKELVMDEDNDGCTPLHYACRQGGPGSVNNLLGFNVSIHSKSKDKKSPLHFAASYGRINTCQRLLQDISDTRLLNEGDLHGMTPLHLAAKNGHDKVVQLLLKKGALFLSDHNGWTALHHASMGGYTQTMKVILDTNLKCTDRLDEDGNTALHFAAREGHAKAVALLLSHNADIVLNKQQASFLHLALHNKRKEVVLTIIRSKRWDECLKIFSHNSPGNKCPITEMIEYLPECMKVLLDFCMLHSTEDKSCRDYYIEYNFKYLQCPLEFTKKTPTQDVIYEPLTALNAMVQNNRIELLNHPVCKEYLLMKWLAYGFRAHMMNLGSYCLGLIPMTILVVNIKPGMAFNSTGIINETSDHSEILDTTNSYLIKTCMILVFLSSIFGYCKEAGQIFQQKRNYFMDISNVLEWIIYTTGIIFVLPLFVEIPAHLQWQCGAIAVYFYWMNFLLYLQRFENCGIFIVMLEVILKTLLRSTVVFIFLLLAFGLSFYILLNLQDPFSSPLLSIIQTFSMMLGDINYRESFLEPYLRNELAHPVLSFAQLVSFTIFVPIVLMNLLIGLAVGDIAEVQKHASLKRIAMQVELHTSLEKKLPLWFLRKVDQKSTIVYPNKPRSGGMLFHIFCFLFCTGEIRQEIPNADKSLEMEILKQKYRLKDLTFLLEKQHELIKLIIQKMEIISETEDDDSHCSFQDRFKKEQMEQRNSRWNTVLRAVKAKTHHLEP
Sequence of Cytochrome P450(2D6) (P10635 whole entry): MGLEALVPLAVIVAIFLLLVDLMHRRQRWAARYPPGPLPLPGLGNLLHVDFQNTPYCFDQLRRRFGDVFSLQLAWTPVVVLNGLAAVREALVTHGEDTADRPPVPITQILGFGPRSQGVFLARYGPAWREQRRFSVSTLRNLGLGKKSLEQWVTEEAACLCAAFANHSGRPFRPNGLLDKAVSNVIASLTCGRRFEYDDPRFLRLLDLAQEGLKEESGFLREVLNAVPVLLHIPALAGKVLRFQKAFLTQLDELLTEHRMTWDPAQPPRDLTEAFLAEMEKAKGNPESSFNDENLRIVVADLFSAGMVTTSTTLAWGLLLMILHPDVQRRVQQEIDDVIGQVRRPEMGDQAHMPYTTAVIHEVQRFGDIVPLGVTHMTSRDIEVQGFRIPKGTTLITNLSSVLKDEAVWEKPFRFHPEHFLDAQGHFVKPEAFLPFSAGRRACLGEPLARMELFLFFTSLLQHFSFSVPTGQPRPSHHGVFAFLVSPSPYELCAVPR

Usually melting point stands for the temperature of the solid-liquid transition. One may read the pEC50 as the negative decadic logarithm of the EC50, by convention in mol/L. As a reminder, the pIC50 is −log10 of the IC50, conventionally taken in molar units. A low value points to a large IC50. Take `O=C(O)/C=C1/C(=O)N(CC2CCCCC2)c2ccccc21` [Example 15, (2E)-[1-(cyclohexylmethyl)-2-oxo-1,2-dihydro-3H-indol-3-ylidene]acetic acid]: the melting point lay in the range of 137 to 139 °C. Also, on human TRPA1, the pEC50 is 5.36. The pIC50 against Cytochrome P450(2D6) is less than 4.70. Further, in the data set with RIN14B cells, the “5-HT release promotion activation value” is on record as 97.4%.

Usually ED50 stands for the dose at which the effect has come halfway, by size or by number of responders. `O=C(O)/C=C1/C(=O)N(CC2CCCC2)c2ccccc21` [Example 26, (2E)-[1-(cyclopentylmethyl)-2-oxo-1,2-dihydro-3H-indol-3-ylidene]acetic acid] came in with a melting point of 140 to 142 °C. In addition, the pEC50 on human TRPA1 was 5.52. For the same compound, the ED50 in data set [1] came out at 0.51 mg/kg. At Cytochrome P450(2D6), this compound gave a pIC50 of less than 4.70. The “5-HT release promotion activation value” in the data set on RIN14B cells came out at 102.5%.
